From patent US8580775B2, “Use of derivatives of sinapinic acid and compositions comprising such derivatives” (Cognis IP Management GmbH, priority 2007, dated 2013) come the findings set out here.

The subject of the series is Melanocytes (B16 cell line). Put plainly: Melanogenesis Inhibition Assay. The format is cell-based. The following applies: for Protein level (rate of cellular proteins) / Melanin level: B16 melanocytes, 3 days incubation, mean +/− SEM; for Protein level (rate of cellular proteins): Bradford's method; for Melanin level: optical density at 475 nm. Here is the method:
Melanocytes (B16 cell line) were inoculated in standard medium of cell culture with foetal calf serum (FCS). After an incubation of 3 days at 37° C. under 5% CO2, growth medium was exchanged for standard medium with a range of concentrations for each compound to be tested and a control without ingredient. After an incubation of 3 days, the level of melanin was measured by recording the optical density at 475 nm. After washing the cells with a balanced salt buffer, and homogenisation in a solution of 0.1 M NaOH, the number of viable cells was determined by evaluation of the level of cellular proteins (Bradford's method).
The results are expressed in % against control (cell culture medium without compound) as a mean+/−SEM (Standard Error of Mean) on 2 or 3 assays, each in triplicate.

Take `COc1cc(/C=C/C(=O)O)cc(OC)c1OC(C)=O` [example 1, 3,5-dimethoxy-4-acetoxy-cinnamic acid]: the “Protein level (rate of cellular proteins)” value (“Protein level” below) by setting is: (dose 0.0003 % (w/v)) 100 +/− 1 %/control; (dose 0.001 % (w/v)) 95 +/− 1 %/control; (dose 0.003 % (w/v)) 93 +/− 3 %/control; (dose 0.01 % (w/v)) 81 +/− 10 %/control. For the same compound, the Melanin level (dose 0.0003 % (w/v)) is given as 86 +/− 2 %/control, the Melanin level (dose 0.001 % (w/v)) is reported as 67 +/− 2 %/control, the Melanin level (dose 0.003 % (w/v)) is given as 26 +/− 1 %/control and the Melanin level (dose 0.01 % (w/v)) is on record as 19 +/− 2 %/control. Moreover, under “summary in words of Table 3”, the cell toxicity entry was “without cell toxicity”. The “rate of melanin synthesis in melanocytes” value (summary in words of Table 3) is recorded as “decreased”.

Turning to `CCOC(=O)/C(=C/c1cc(OC)c(O)c(OC)c1)C(C)=O` [example 2], where the note is “dose 0.001 % (w/v)”, the “Protein level” value was 110 +/− 10 %/control and the Melanin level is recorded as 108 +/− 3 %/control. Also, where the note is “dose 0.003 % (w/v)”, the “Protein level” value is reported as 123 +/− 9 %/control and the Melanin level is reported as 54 +/− 6 %/control. The cell toxicity entry (summary in words of Table 3) is on record as “without cell toxicity”.
